We go through 6 compounds from patent US20250243242A1, “LEVODOPA TYROSINE POLYMORPHS” (NeuroDerm, Ltd., priority 2022, published 2025).

Holding throughout (assay type): physicochemical
Data set [1] can be described thus: solid form stability upon storage at ambient conditions.
Data set [2] is described as follows: dynamic vapor sorption (DVS). Conditions: for hygroscopicity, weight gained: between 40-80% RH; for hygroscopicity (in words): DVS, 40-80% RH. As for the experimental part:
Dynamic vapour sorption (DVS) was performed using a Hiden Analytical Instruments IGAsorp Vapour Sorption Balance. Approximately 30 mg of sample was placed into a wire-mesh vapour sorption balance pan, loaded into the IGAsorp vapour sorption balance and held at 25° C.±0.1° C. The sample was subjected to a step profile in 10% increments from 40-90% RH, followed by desorption from 90-0% RH and a second sorption cycle form 0-40% RH. The equilibrium criterion was set to 99.0% step completion within a minimum of 60 minutes and a maximum of 5 hours for each increment. The weight change during the sorption cycle was monitored, allowing for the hygroscopic nature of the sample to be determined. The data collection interval was in seconds.

Data set [3] is described as follows: physical stability at 75% RH and 40° C.
Data set [4] in a line: aqueous solubility at various pH.
[5] abbreviates: between about 40 to about 80% RH at 25° C.

Structures are written as SMILES. Converted amounts (≈) assume the structure as drawn. Non-standard residues stand in square brackets, D forms with d. Residues, ends and D or L forms follow the SMILES beside them. Dopa = N[C@@H](Cc1ccc(O)c(O)c1)C(=O)O

In the case of `N[C@@H](Cc1ccc(O)c(O)c1)C(=O)N[C@@H](Cc1ccc(O)cc1)C(=O)O` [Form C, ((S)-2-amino-3-(3,4-dihydroxyphenyl)propanoyl)-L-tyrosine] (H-[Dopa]-Tyr-OH), in data set [1], the “form conversion upon storage” value was “converted to Form G”.
The same measure, in the same setting: the value for `N[C@@H](Cc1ccc(O)c(O)c1)C(=O)N[C@@H](Cc1ccc(O)cc1)C(=O)O` [Form D, ((S)-2-amino-3-(3,4-dihydroxyphenyl)propanoyl)-L-tyrosine] (H-[Dopa]-Tyr-OH) was “converted to Form N”.
As for `N[C@@H](Cc1ccc(O)c(O)c1)C(=O)N[C@@H](Cc1ccc(O)cc1)C(=O)O` [Form E, ((S)-2-amino-3-(3,4-dihydroxyphenyl)propanoyl)-L-tyrosine] (H-[Dopa]-Tyr-OH), the “form conversion upon storage” value in data set [1] was “converted to Form B”. Besides, the “DVS reversable total mass change” value in data set [2] (between about 0 to about 90% RH at 25° C.) is “about 8 wt. %”.
Take `N[C@@H](Cc1ccc(O)c(O)c1)C(=O)N[C@@H](Cc1ccc(O)cc1)C(=O)O` [Form G, ((S)-2-amino-3-(3,4-dihydroxyphenyl)propanoyl)-L-tyrosine] (H-[Dopa]-Tyr-OH): the “hygroscopicity, weight gained” value in data set [2] came out at 2.6 % w/w. In addition, the “DVS reversable total mass change” value in data set [2] (setting [5]) is on record as “about 2.6 wt. %”.
`N[C@@H](Cc1ccc(O)c(O)c1)C(=O)N[C@@H](Cc1ccc(O)cc1)C(=O)O` [Form N, ((S)-2-amino-3-(3,4-dihydroxyphenyl)propanoyl)-L-tyrosine] (H-[Dopa]-Tyr-OH): in data set [3], the physical stability entry was “physically stable”. The solubility was around 2860 µg/mL (≈ 7.94 mM) in data set [4] (aqueous medium, pH 3.27, aqueous buffer, pH of about 3.27); around 1640 µg/mL (≈ 4.55 mM) in data set [4] (aqueous medium, pH 3.83, aqueous buffer, pH of about 3.83); around 1540 µg/mL (≈ 4.27 mM) in data set [4] (aqueous medium, pH 3.92, aqueous buffer, pH of about 3.92); around 1330 µg/mL (≈ 3.69 mM) in data set [4] (aqueous medium, pH 4.68, aqueous buffer, pH of about 4.68); around 1290 µg/mL (≈ 3.58 mM) in data set [4] (aqueous medium, pH 5, aqueous buffer, pH of about 5.00); around 1370 µg/mL (≈ 3.8 mM) in data set [4] (aqueous medium, pH 6.04, aqueous buffer, pH of about 6.04). Moreover, the solubility is around 184000 µg/mL (≈ 512 mM) in data set [4] (aqueous solution, pH 1.17, simulated gastric fluid, pH of about 1.17); around 9460 µg/mL (≈ 26.3 mM) in data set [4] (aqueous solution, pH 2.6, aqueous buffer, pH of about 2.60); around 4060 µg/mL (≈ 11.3 mM) in data set [4] (aqueous solution, pH 3, aqueous buffer, pH of about 3.00); around 510 µg/mL (≈ 1.42 mM) in data set [4] (aqueous solution, pH 6.78, aqueous buffer, pH of about 6.78); around 18900 µg/mL (≈ 52.3 mM) in data set [4] (aqueous solution, pH 7.56, aqueous buffer, pH of about 7.56); around 111000 µg/mL (≈ 309 mM) in data set [4] (aqueous solution, pH 8.69, aqueous buffer, pH of about 8.69). The solubility in data set [4] (aqueous solution, pH 9.43, aqueous buffer, pH of about 9.43) is around 58700 µg/mL (≈ 163 mM); in data set [4] (aqueous solution, pH 10.26, aqueous buffer, pH of about 10.26), around 155000 µg/mL (≈ 431 mM). The “hydrate stability, water loss at low RH” value in data set [2] (DVS analysis, compared with Form G) is on record as “more stable hydrate”. For the same compound, the “hygroscopicity (in words)” value in data set [2] is “less hygroscopic”. The “hygroscopicity, weight gained” value in data set [2] was determined as 0.6 % w/w. In data set [2] (setting [5]), the “DVS reversable total mass change” value is “about 0.6 wt. %”.
As for `N[C@@H](Cc1ccc(O)c(O)c1)C(=O)N[C@@H](Cc1ccc(O)cc1)C(=O)O` [amorphous form, ((S)-2-amino-3-(3,4-dihydroxyphenyl)propanoyl)-L-tyrosine] (H-[Dopa]-Tyr-OH), the “hygroscopicity (in words)” value in data set [2] is reported as “hygroscopic”. In addition, the “solid form by XRPD following DVS cycling” value in data set [2] (XRPD after DVS cycling) is “converted to Pattern N material”. In data set [2] (setting [5]), the “DVS reversable total mass change” value is listed as “about 4.19 wt. %”.

One may read the solubility as the concentration that dissolves in the medium under given conditions. Low readings indicate little dissolved substance, high ones much dissolved substance.
